Laboratory results as given in US5527832A, “Antiinflammatory and analgesic transdermal gel” (priority 1994, dated 1996).

How the values were obtained:
[1] = Gastric ulcer formation (Experiment 4); format: in vivo, male Sprague-Dawley rats; conditions: 10 mg/kg
Protocol: Male Sprague-Dawley rats weighing around 200 g were used as the test animals. […] As a reference, the rats of the control group were administrated ketoprofen orally as a suspension in physiological saline at the dose of 10 mg/kg. Six hours after the administration, the rats were sacrificed and ulcer formation in the stomach was scored as follows: 0; normal, 1; reddened mucosa, 2; one to four small ulcer (smaller than 2 mm in diameter). 3; more than four small ulcer or one large ulcer (larger than 2 mm in diameter), 4; more than one large ulcer. The score of two or higher was regarded as ulcer formation.

[2] = postdose, oral administration to rats; cited from earlier work

Structure (SMILES)	Average ulcer score ([1]; rat, in vivo, po)	No. of rat ulcer is produced ([1]; rat, in vivo, po)	No. of rat ulcer is produced ([1]; oral, 6 h after administration)	Average ulcer score ([1]; oral, 6 h after administration, score 0-4)	Time of maximum concentration of ketoprofen [2] [h]
CC(C(=O)O)c1ccc(-c2ccccc2)c(F)c1 (stereo not shown) [flurbiprofen]	2.46	5/6			
CC(C)Cc1ccc(C(C)C(=O)O)cc1 (stereo not shown) [ibuprofen]	2.53	6/6			
CC(C(=O)O)c1cccc(C(=O)c2ccccc2)c1 (stereo not shown) [ketoprofen]			6/6	2.91	0.25 to 0.5
